# In patent publication US4468469A, “Substituted phenylacetic acids and salts as TBP blocking agents in iodothyronine immunoassays” (Miles Laboratories, Inc., priority 1982, dated 1984):
# Assay: Fluorescence and fluorescence quenching studies (SLFIA conditions)
# Conditions: 10 mM fenclofenac; excitation 400 nm, emission 450 nm, 50 mM Bicine buffer pH 8.3
# Protocol: Fluorescence measurements were conducted in 50 mM Bicine buffer (N,N-bis-(2-hydroxyethyl)glycine, Calbiochem-Behring, LaJolla, Calif., USA), pH 8.3, using an Aminco Bowman Fluorometer (American Instruments, Silver Springs, Md., USA), excitation set at 400 nm and emission at 450 nm, which are the fluorescence conditions for the β-galactosyl-umbelliferone enzyme substrate-labeled fluorescent immunoassay (SLFIA) described in U.S. Pat. No. 4,279,992.
# Quenching studies were performed by measuring the fluorescence of a 1.3 μM solution of 2-[7-hydroxy-3-carboxamidocoumarin]ethanol (U.S. Pat. No. 4,273,715) in the presence of various levels of fenclofenac. The ratios of observed fluorescence (F) to fluorescence in the absence of fenclofenac (Fo) versus fenclofenac concentration were calculated and are presented in Table 6.
smiles,measurement,value
"O=C(O)Cc1ccccc1Oc1ccc(Cl)cc1Cl [Fenclofenac, 2-(2,4-dichlorophenoxy)phenylacetic acid]",own fluorescence,did not exhibit any fluorescence
